{"source": "patent US6583175B2", "about": "“Alkylxanthates and use of alkylxanthates in the integrated pest management” (Council of Scientific & Industrial Research, priority 2001, dated 2003)", "key": {"Spodoptera litura": {"tested_on": "Spodoptera litura", "assay": "Antifeedant activity against late third instar of Spodoptera litura (leaf disk, oral feeding)", "format": "in vivo"}, "Aedes aegypti mosquito": {"tested_on": "Aedes aegypti mosquito", "details": "various aquatic stages of Aedes aegypti; cited from earlier work"}, "in vivo": {"assay": "in vivo", "details": "Artemia salina (brine shrimp), other: exposure in artificial seawater in the sample vial"}}}
{"smiles": "CC(C)COC(=S)SCCSC(=S)OCC(C)C", "note": "[Ethylene bis (isobutylxanthate), Ethylene Bis (isobutylxanthate)]", "values": [{"measurement": "A.I. (Anti-feedent Index)", "setting": "Spodoptera litura; 20 μg/sq. cm.", "value": 8.14}, {"measurement": "Percent leaf consumption 12 hr", "setting": "Spodoptera litura; 20 μg/sq. cm.", "value": 60.2, "unit": "%"}, {"measurement": "Percent leaf consumption 24 hr", "setting": "Spodoptera litura; 20 μg/sq. cm.", "value": 80.7, "unit": "%"}, {"measurement": "A.I. (Anti-feedent Index)", "setting": "Spodoptera litura; 35 μg/sq. cm.", "value": 20.48}, {"measurement": "Percent leaf consumption 12 hr", "setting": "Spodoptera litura; 35 μg/sq. cm.", "value": 36.1, "unit": "%"}, {"measurement": "Percent leaf consumption 24 hr", "setting": "Spodoptera litura; 35 μg/sq. cm.", "value": 62.7, "unit": "%"}, {"measurement": "A.I. (Anti-feedent Index)", "setting": "Spodoptera litura; 50 μg/sq. cm.", "value": 34.85}, {"measurement": "Percent leaf consumption 12 hr", "setting": "Spodoptera litura; 50 μg/sq. cm.", "value": 22.4, "unit": "%"}, {"measurement": "Percent leaf consumption 24 hr", "setting": "Spodoptera litura; 50 μg/sq. cm.", "value": 45.9, "unit": "%"}, {"measurement": "A.I. (Anti-feedent Index)", "setting": "Spodoptera litura; 65 μg/sq. cm.", "value": 58.07}, {"measurement": "Percent leaf consumption 12 hr", "setting": "Spodoptera litura; 65 μg/sq. cm.", "value": 9.3, "unit": "%"}, {"measurement": "Percent leaf consumption 24 hr", "setting": "Spodoptera litura; 65 μg/sq. cm.", "value": 25.2, "unit": "%"}, {"measurement": "Concentration required for 50% leaf protection EC50 ± S.E.", "setting": "Spodoptera litura; late third instar", "value": "42.46 ± 5.76", "unit": "μg/cm^2"}, {"measurement": "larvicidal and insect growth regulatory activity", "setting": "Aedes aegypti mosquito", "value": "larvicidal and insect growth regulatory activity in dose dependent mannar"}, {"measurement": "LC50 at 24 h", "setting": "in vivo", "value": "25.8 ± 2.9", "unit": "µg/mL"}]}
